Active and inactive are the calls of the source. How the calls were made is not given here.
Tested on: rodent lifetime carcinogenesis bioassay, tumor incidence TD50
Test: chronic cancer bioassays in animals – CPDB, compiled studies (AID 1745844)

With `CC1(C)S[C@@H]2[C@H](NC(=O)COc3ccccc3)C(=O)N2[C@H]1C(=O)O` the carcinogen call (mouse, strain B6C3F1, females, by gavage, site: any site (literature study), lesion: several types, types named in the paper, dosed 104 weeks, study length 104 weeks) was “negative (inactive)”, the TD50 (mouse, strain B6C3F1, females, by gavage, site: liver, lesion: hepatocellular adenoma + hepatocellular carcinoma + neoplastic nodule, dosed 104 weeks, study length 104 weeks) was 10200 mg/kg/day and the TD50 (mouse, strain B6C3F1, females, by gavage, site: lung, lesion: alveolar/bronchiolar adenoma + alveolar/bronchiolar carcinoma, dosed 104 weeks, study length 104 weeks) was 16600 mg/kg/day. For the same compound, the carcinogen call (mouse, strain B6C3F1, males, by gavage, site: any site (literature study), lesion: several types, types named in the paper, dosed 104 weeks, study length 104 weeks) was “negative (inactive)”, the TD50 (rat, strain Fischer 344, females, by gavage, site: any site (literature study), lesion: several types, types named in the paper, dosed 103 weeks, study length 104 weeks) was 503 mg/kg/day and the TD50 (rat, strain Fischer 344, females, by gavage, site: clitoral gland, lesion: adenoma, NOS, dosed 103 weeks, study length 104 weeks) was 3650 mg/kg/day. For the same compound, the TD50 (rat, strain Fischer 344, females, by gavage, site: thyroid gland, lesion: c-cell adenoma + c-cell carcinoma, dosed 103 weeks, study length 104 weeks) was 1360 mg/kg/day (inactive), the TD50 (rat, strain Fischer 344, females, by gavage, site: thyroid gland, lesion: c-cell adenoma, dosed 103 weeks, study length 104 weeks) was 1620 mg/kg/day and the TD50 (rat, strain Fischer 344, males, by gavage, site: any site (literature study), lesion: several types, types named in the paper, dosed 103 weeks, study length 104 weeks) was 544 mg/kg/day. The TD50 (rat, strain Fischer 344, males, by gavage, site: liver, lesion: hepatocellular adenoma + hepatocellular carcinoma + neoplastic nodule, dosed 103 weeks, study length 104 weeks) was 12200 mg/kg/day, the TD50 (rat, strain Fischer 344, males, by gavage, site: pituitary gland, anterior, lesion: adenoma, NOS + carcinoma, NOS, dosed 103 weeks, study length 104 weeks) was 874 mg/kg/day (inactive) and the TD50 (rat, strain Fischer 344, males, by gavage, site: pituitary gland, anterior, lesion: adenoma, NOS, dosed 103 weeks, study length 104 weeks) was 949 mg/kg/day.

In the case of `Cc1ccc2c(-c3cccc(O)c3)nc(=O)n(C(C)C)c2c1`, the carcinogen call (mouse, strain Charles River CD1, females, in feed, site: liver, lesion: hemangiosarcoma, dosed 86 weeks, study length 86 weeks) is reported as “negative (inactive)”, the carcinogen call (mouse, strain Charles River CD1, females, in feed, site: lung, lesion: alveolar/bronchiolar adenoma, dosed 86 weeks, study length 86 weeks) is reported as “negative (inactive)” and the TD50 (mouse, strain Charles River CD1, females, in feed, site: lung, lesion: alveolar/bronchiolar carcinoma, dosed 86 weeks, study length 86 weeks) is reported as 4600 mg/kg/day (inactive). For the same compound, the carcinogen call (mouse, strain Charles River CD1, females, in feed, site: lung, lesion: hibernoma, malignant, dosed 86 weeks, study length 86 weeks) was “negative (inactive)”, the carcinogen call (mouse, strain Charles River CD1, males, in feed, site: liver, lesion: hemangiosarcoma, dosed 86 weeks, study length 86 weeks) was “negative (inactive)” and the carcinogen call (mouse, strain Charles River CD1, males, in feed, site: lung, lesion: alveolar/bronchiolar adenoma, dosed 86 weeks, study length 86 weeks) was “negative (inactive)”. The TD50 (mouse, strain Charles River CD1, males, in feed, site: lung, lesion: alveolar/bronchiolar carcinoma, dosed 86 weeks, study length 86 weeks) was 8400 mg/kg/day (inactive), the carcinogen call (rat, strain Sandoz, females, in feed, site: liver, lesion: hepatocellular carcinoma, dosed 104 weeks, study length 104 weeks) was “negative (inactive)” and the TD50 (rat, strain Sandoz, females, in feed, site: liver, lesion: neoplastic nodule, dosed 104 weeks, study length 104 weeks) was 2220 mg/kg/day (inactive). For the same compound, the carcinogen call (rat, strain Sandoz, females, in feed, site: mammary tissue, wider than the gland, lesion: fibroadenoma, dosed 104 weeks, study length 104 weeks) was “negative (inactive)”, the TD50 (rat, strain Sandoz, males, in feed, site: adrenal gland, lesion: malignant tumor, dosed 104 weeks, study length 104 weeks) was 113 mg/kg/day (inactive) and the carcinogen call (rat, strain Sandoz, males, in feed, site: liver, lesion: one or several types, types not named, dosed 104 weeks, study length 104 weeks) was “negative (inactive)”.

In the case of `C=C1C[C@@]23CC[C@H]4[C@@](C)(CCC[C@@]4(C)C(=O)O[C@@H]4O[C@H](CO)[C@@H](O)[C@H](O)[C@H]4O)[C@@H]2CC[C@]1(O[C@@H]1O[C@H](CO)[C@@H](O)[C@H](O)[C@H]1O[C@@H]1O[C@H](CO)[C@@H](O)[C@H](O)[C@H]1O)C3`, the TD50 (rat, strain F344/DuCrj, females, in feed, site: any site (literature study), lesion: several types, types named in the paper, dosed 104 weeks, study length 108 weeks) is reported as 34400 mg/kg/day (inactive), the carcinogen call (rat, strain F344/DuCrj, females, in feed, site: liver, lesion: one or several types, types not named, dosed 104 weeks, study length 108 weeks) is reported as “negative (inactive)” and the carcinogen call (rat, strain F344/DuCrj, males, in feed, site: any site (literature study), lesion: several types, types named in the paper, dosed 104 weeks, study length 108 weeks) is reported as “negative (inactive)”. For the same compound, the carcinogen call (rat, strain F344/DuCrj, males, in feed, site: liver, lesion: hepatocellular adenoma, dosed 104 weeks, study length 108 weeks) was “negative (inactive)” and the TD50 (rat, strain F344/DuCrj, males, in feed, site: liver, lesion: hepatocellular carcinoma, dosed 104 weeks, study length 108 weeks) was 101000 mg/kg/day (inactive).

`CCCCCCCCCCCCCCN(C)N=O` was tested, and the carcinogen call (rat, strain Fischer 344, males, by gavage, site: any site (literature study), lesion: several types, types named in the paper, dosed 30 weeks, study length 102 weeks) was “positive”, the TD50 (rat, strain Fischer 344, males, by gavage, site: lung, lesion: adenocarcinoma, dosed 30 weeks, study length 102 weeks) was 60.5 mg/kg/day and the TD50 (rat, strain Fischer 344, males, by gavage, site: lung, lesion: adenoma, dosed 30 weeks, study length 102 weeks) was 29.4 mg/kg/day. For the same compound, the carcinogen call (rat, strain Fischer 344, males, by gavage, site: urinary bladder, lesion: transitional-cell carcinoma, dosed 30 weeks, study length 102 weeks) was “positive”.

With `O=NN1CCCN(N=O)C1` the TD50 (rat, strain Sprague-Dawley, males, i.p., site: paranasal sinus, lesion: squamous-cell carcinoma, dosed 104 weeks, study length 104 weeks) was 0.166 mg/kg/day.
